Data on 1 substance can be found in PMC6240096, “A hPSC-based platform to discover gene-environment interactions that impact human β-cell and dopamine neuron survival” (Nature Communications, 2018).

One assay deals with GSTT1-/- INS+ cells. The experiment in a line: Inhibition curve on INS+ cells derived from GSTT1-/- H1 hESCs. The class given is cell-based, human. The following applies: H1 hESC-derived, n = 3; read-out: IC50 for GSTT1-/--1 INS+ cells. As for the experimental part: (§1) hESCs-derived INS^+ cells, MSCs[43], neurons, and hepatocytes[44] were derived based on the reported protocols and re-plated on 96-well plates with Accutase digestion. Cardiomyocytes (CMs) were differentiated from H9-MYH6: mCherry reporter line, based on the reported protocol. After overnight incubation, cells were treated with DMSO or different doses of hit compounds for 4 days. After fixation, the cells were stained with markers for each cell type. DAPI was used to stain cell nuclei. Plates were analyzed by ImageXpress^MICRO Automated High-Content Analysis System.
(§2) CRISPR sgRNA sequences were designed using the web resources available at http://www.genome-engineering.org/. The target sequences are listed in Supplementary Table 2. Each target sequence was cloned into the pX330-U6-Chimeric_BB-CBh-hSpCas9 vector (Addgene plasmid #42230) to make the gene targeting constructs. To knockout the target genes, two sgRNAs were validated using the surveyor assay in 293T cells, and we chose 1 sgRNA-construct plasmid for further experiments. After validation, H1 or INS^GFP/W HES3 cells were dissociated using Accutase (STEM CELL) and electroporated (8 × 10^5 cells per sample) with 4 μg sgRNA-construct plasmids using Human Stem Cell Nucleofector^TM solution (Lonza) following manufacturer’s instructions. […] A portion of the cells was analyzed by DNA sequencing. […]

For a further assay, the system named is MIN6 cells. The assay is described as follows: Autophagy marker LC3-II western blotting. The assay is classed as cell-based, mouse. Conditions: 0.8 µM or 1.6 µM propargite. The source says:
To extract intracellular protein, cells were placed on ice, washed twice with ice-cold PBS and lysed immediately with RIPA buffer (Life Technologies, 89900) supplemented with a protease inhibitor cocktail (Life Technologies, 78440). Cell lysates were then sonicated and the soluble fraction was collected after centrifugation. Protein amount was quantified by the BCA protein assay (Life Technologies, 23227). To extract extracellular HMGB1, tissue culture media were collected and concentrated using Afyon SDS-PAGE sample preparation kit (advansta, K-02101-025). 20 μg of total protein for each sample was mixed with loading buffer and incubated for 5 min at 95 °C before being loaded into NuPAGE® Novex® 4–12% […] Protein Gels (Life Technologies, NP0321BOX) for electrophoresis. Separated proteins were transferred to a PVDF membrane (Millipore, IPSN07852) after electrophoresis. […] ECL signals were developed and detected using the SuperSignal™ West Femto Maximum Sensitivity Substrate (Life Technologies, 34094) and a C-DiGit Chemiluminescent Western Blot Scanner (LI-COR). […]
cells. (b, c) Flow cytometry analysis (b) and quantification (c) of the percentage of […]
Etoposide was used as a positive control. Values presented as mean±S.D. (d, e) Immunocytochemistry analysis (d) and quantification (e) of the percentage of Active Caspase-3+ cells in 1.6 µM propargite treated MIN6 cells (n=3). […]
On the technique in general: Immunoblotting shows a protein as a band on a membrane.

Another assay relates to GSTT1+/+ INS+ cells. The assay is described as follows: Inhibition curve on INS+ cells derived from GSTT1+/+ H1 hESCs. The class given is cell-based, human. The following applies: H1 hESC-derived, n = 3; read-out: IC50 of GSTT1+/+-1 INS+ cells. As for the experimental part: as §1, §2

In the case of “2-(4-tert-butylphenoxy)-cyclohexyl prop-2-yne-1-sulfonate [propargite]”, the values for the IC50 in the assay with GSTT1-/- INS+ cells and with GSTT1+/+ INS+ cells were 1170 nM and 2150 nM, respectively. Also, the “relative levels of LC3-II” value with MIN6 cells is reported as “no significant increase”.
